“And” between values parts separate entries of the source, which are not always exact repeats. Identical values can stand only once. Like-named read-outs stand apart in the source and are kept apart here. Numbered stars: 1 amine (or outer) side, 2 acyl side, 3 side chain; on linkers, the order of the positions; unused ones are H or OH. Bridge positions count the residues as written; N and C are the ends. Peptide text beside a SMILES is read from it. I, II: the chains in the order shown. Diglycolyl = O=C(COCC(=O)[*:2])[*:1]
Legend:
[1] = target: T1, human TRAIL R2 (Homo sapiens, UniProt O14763); assay: AlphaQuest TRAIL R2 receptor binding competition assay (AlphaScreen, biotinylated TRAIL ligand vs TRAIL R2-Fc); settings: competition with biotinylated TRAIL ligand
T1 construct: purchased R&D Systems, Minneapolis, Minn
Description: Laser excitation (680 nm) of a photosensitizer in the donor bead generates singlet state oxygen molecules, which react with a chemiluminescer in the acceptor bead to generate a detectable light signal (520-620 nm). Because the singlet O2 molecules have an extremely short half-life (i.e., t ½), a signal is generated only when the donor and acceptor beads are brought into close proximity, by TRAIL binding to the R2 receptor. The presence of unlabeled test peptide that competes with TRAIL for binding to the R2 receptor will prevent this binding, resulting in a measurable decrease in light emission.
Recombinant human TRAIL R2-Fc fusion protein (R&D Systems, Minneapolis, Minn.) is diluted in AlphaQuest® buffer to a concentration of 600 pM, pre-mixed with 1.9 μL Protein A-coated acceptor beads and 1.9 μL streptavidin-coated donor beads (Perkin-Elmer®, Waltham, Mass.), then 2 μL is added to each well of the assay plate. […] The plates are sealed with adhesive sealing film and covered with aluminum foil, centrifuged at 600 rpm for 30 seconds and incubated overnight in the dark. […] The raw data are analyzed using GraphPad Prism® software (La Jolla, Calif.) to calculate IC50 values from a 4-parameter logistic equation.

[2] = system: HCT-116 cells; assay type: cell-based
Experimental: The apoptotic activity of test peptides is measured using an HCT-116 proliferation assay. The HCT-116 assay is used to measure the activity of TRAIL R2 agonist peptides using the colon carcinoma cell line HCT-116 (ATCC, Manassas, Va.).
In more detail, a peptide homotrimer based on the peptide monomer sequence of SEQ ID NO: 19 (See, FIG. 8B) is tested for functional activity using the HCT-116 proliferation assay. HCT-116 cells are incubated for one to two days in the presence of serially diluted peptide dimers or peptide trimers. […]
Cell viability is measured using an MTT colorimetric viability assay, a colorimetric assay that analyzes the number of viable cells by measuring the ability of mitochondrial dehydrogenase enzyme in the viable cells to cleave tetrazolium salts added to the culture medium [See, Mosmann (1983) J. Immunol. […] Using this assay, cell proliferation is assessed after 24-48 hours by adding 10 μL of MTT stock solution (ATCC, Manassas, Va.) to the wells. […] After incubation overnight in a 37° C., 5% CO2 incubator, the plates are quantified by reading the optical density at 595 nm (OD595) in a SpectraMax M5 microplate reader (Molecular Devices, Sunnyvale, Calif.). The data are analyzed using GraphPad® Prism software (La Jolla, Calif.) to calculate IC50 values from a 4-parameter logistic equation.

[3] = system: Jurkat cells; assay type: cell-based
Experimental: The apoptotic activity of test peptides is measured using a Jurkat proliferation assay.
Jurkat cells are obtained from the American Type Culture Collection (ATCC, Manassas, Va.) and are maintained in RPMI-1640 medium supplemented with 10% FBS, 100 U/mL penicillin, and 100 […] (Growth Medium). […] Cells are resuspended at a density of 1×10^6 cells/mL in Growth Medium, and 50 μl cells is added to each well of the assay plates. The plates are incubated in a 37° C., 5% CO2 incubator for 24-48 hours. Proliferation is assessed by adding 10 μL of MTT stock solution (ATCC, Manassas, Va.) to the wells. The plates are incubated in a 37° C., 5% CO2 incubator for another 2-4 hours, followed by the addition of 100 μL of 20% SDS with 0.01 N HCl. After incubation overnight in a 37° C., 5% CO2 incubator, the plates are quantified by reading the optical density at a wavelength of 595 nm (OD595) in a SpectraMax® M5 microplate reader (Molecular Devices, Sunnyvale, Calif.). The data are analyzed using GraphPad Prism® software (La Jolla, Calif.) to calculate IC50 values from a 4-parameter logistic equation.

[4] = Apoptotic (functional) activity of peptides of FIG. 5, assay not named; assay type: cell-based; settings: FIG. 5, role of the C-terminal leucine

IC50 ([1]; single values and ranges over assays, read-out: binding activity (IC50)) | EC50 [2] [nM] | EC50 [3] [nM] | IC50 ([1]; single exemplary values and ranges over assays, read-out: binding affinity / binding activity (IC50)) | Structure (SMILES) | apoptotic activity (observed or not) [4]
~7000 nM and 1000 to 56000 nM | ~1620 | 945 to 7000 |  | CC[C@H](C)[C@@H]1NC(=O)[C@H](CCCNC(=N)N)NC(=O)[C@H](CC(N)=O)NC(=O)[C@H](CC(=O)O)NC(=O)[C@H](CC(C)C)NC(=O)[C@@H](NC(=O)[C@H](CC(=O)O)NC(=O)[C@H](Cc2c[nH]c3ccccc23)NC(C)=O)CSSC[C@@H](C(=O)N[C@H](C(=O)N[C@@H](CCCCNC(=O)COCC(=O)NCCCC[C@H](NC(=O)[C@@H](NC(=O)[C@@H]2CSSC[C@H](NC(=O)[C@H](CC(=O)O)NC(=O)[C@H](Cc3c[nH]c4ccccc34)NC(C)=O)C(=O)N[C@@H](CC(C)C)C(=O)N[C@@H](CC(=O)O)C(=O)N[C@@H](CC(N)=O)C(=O)N[C@@H](CCCNC(=N)N)C(=O)N[C@@H]([C@@H](C)CC)C(=O)NCC(=O)N[C@@H](CCCNC(=N)N)C(=O)N[C@@H](CCCNC(=N)N)C(=O)N[C@@H](CCC(N)=O)C(=O)N2)C(C)C)C(=O)N[C@@H](CC(C)C)C(N)=O)C(=O)N[C@@H](CC(C)C)C(N)=O)C(C)C)NC(=O)[C@H](CCC(N)=O)NC(=O)[C@H](CCCNC(=N)N)NC(=O)[C@H](CCCNC(=N)N)NC(=O)CNC1=O [SEQ ID NO: 19 homodimer] (I: Ac-WDCLDNRIGRRQCVKL-NH2 / II: Ac-WDCLDNRIGRRQCVKL-NH2; disulfide I:3-I:13, II:3-II:13; linker I:15-II:15 via Diglycolyl) | 
 |  |  | ~49 nM and 15 to 104 nM and 1 to 56 nM | CC[C@H](C)[C@@H]1NC(=O)[C@H](CCCNC(=N)N)NC(=O)[C@H](CC(N)=O)NC(=O)[C@H](CC(=O)O)NC(=O)[C@H](CC(C)C)NC(=O)[C@@H](NC(=O)[C@H](CC(=O)O)NC(=O)[C@H](Cc2c[nH]c3ccccc23)NC(C)=O)CSSC[C@@H](C(=O)N[C@H](C(=O)N[C@@H](CCCCN)C(=O)N[C@@H](CC(C)C)C(N)=O)C(C)C)NC(=O)[C@H](CCC(N)=O)NC(=O)[C@H](CCCNC(=N)N)NC(=O)[C@H](CCCNC(=N)N)NC(=O)CNC1=O [SEQ ID NO: 19 monomer] (Ac-WDCLDNRIGRRQCVKL-NH2; disulfide 3-13) | exhibits apoptotic activity
 |  |  |  | CC[C@H](C)[C@@H]1NC(=O)[C@H](CCCNC(=N)N)NC(=O)[C@H](CC(N)=O)NC(=O)[C@H](CC(=O)O)NC(=O)[C@H](CC(C)C)NC(=O)[C@@H](NC(=O)[C@H](CC(=O)O)NC(=O)[C@H](Cc2c[nH]c3ccccc23)NC(C)=O)CSSC[C@@H](C(=O)N[C@H](C(=O)N[C@@H](CCCCN)C(N)=O)C(C)C)NC(=O)[C@H](CCC(N)=O)NC(=O)[C@H](CCCNC(=N)N)NC(=O)[C@H](CCCNC(=N)N)NC(=O)CNC1=O [SEQ ID NO: 28 monomer] (Ac-WDCLDNRIGRRQCVK-NH2; disulfide 3-13) | no apoptotic activity is observed

Reference: patent publication US20090131317A1, “COMPOUNDS AND PEPTIDES THAT BIND THE TRAIL RECEPTOR” (AFFYMAX, INC., priority 2007, published 2009)
